Here are results for one compound from patent US9539298B2, “Lissencephaly therapeutic agent” (OSAKA CITY UNIVERSITY, priority 2010, dated 2017).

For test [1], the system named is LIS1 heterozygous mice (lissencephaly model mice). In words: Behavior analysis: Gait Analysis. In kind it is in vivo, mouse. Particulars: 200 μg/g per day oral; for Swing-to-Stance Ratio: FIG. 13. As to the method: To conduct a behavior analysis experiment, wild-type mice and Lis1 (^+/−) heterozygous mice were divided into five groups (C group, M1 group, M2 group, M3 group, and M4 group). The details regarding the mice in each group are described below. CE-2 (CLEA Japan, Inc.) was used as mice feed. The wild-type mice and heterozygous mice used for this experiment were prepared in the same method as described in the above section “Preparation of LIS1 gene hetero-deficient mice (LIS1 heterozygous mice).”
M2 group: LIS1 heterozygous mice prepared as follows. SNJ-1945 was dissolved in dimethyl sulfoxide (Sigma, D-5879) at a concentration of 100 mg/ml, and administered to pregnant mice from Day 9.5 of the embryonic period (E9.5) in an amount of 200 μg per gram of maternal body weight per day. The administration was performed by adding SNJ-1945 to mice feed. During the postnatal period, the administration was continued in the same manner as in M3 group below. M3 group: LIS1 heterozygous mice prepared as follows. […]
By adding SNJ-1945 to the mice feed (CE-2, CLEA Japan, Inc.), SNJ-1945 was continuously administered to the mice so that the administration amount became 200 μg per gram of body weight per day through oral administration. For a behavior analysis experiment, 12 to 16 mice were grouped to be subjected to preliminary breeding in the behavior experiment facility for 1 to 2 weeks; thereafter, the behavior of the mice was analyzed at an age of about 9 to 12 weeks. After the behavior analysis experiment, a gene type was determined for all mice.
Statistical processing of experiment data of mice behavior analysis was conducted using Stat View (SAS institute) statistics software. ANOVA assay (analysis of variance between multiple groups) was conducted for all five groups, and a group with a risk rate (p value) of less than 5% (p<0.05) was determined to have a significant difference. […]

Test [2] addresses m-calpain (derived from porcine kidney) (Sus scrofa, UniProt I3LQD3). Description: Measurement of inhibitory activity against m-calpain. In kind it is biochemical. As to conditions: casein substrate, 30° C., 60 minutes; read-out: enzyme inhibitory activities (μM) m-calpain. As to the method: More specifically, 200 μL of a reaction solution containing 0.5 mg/mL casein, 50 mM Tris-HCl buffer (pH 7.4), 20 mM dithiothreitol and 1.0 nmol μ-calpain (derived from human red blood cells, Cosmo Bio Co., Ltd.) or m-calpain (derived from porcine kidney, Cosmo Bio Co., Ltd.) was added to individual 2.5 μL portions of DMSO solution containing a varying concentration of a test sample in a 96-well plate. Then, 50 μL of 20 mM aqueous calcium chloride was added thereto, and reaction was performed at 30° C. for 60 minutes. 100 μL of the reaction solution was transferred to another 96-well plate, and purified water (50 μL) and 50% aqueous solution (100 μL) of Protein Assay Dye Reagent (available from Bio-Rad Laboratories, Inc.; catalogue No. 500-600) were added thereto. […] The absorbance of a reaction mixture prepared in the same manner as mentioned above, except that a DMSO solution containing no sample was used as a control value; and the absorbance of a reaction mixture prepared in the same manner as mentioned above, except that a 1 mM aqueous EDTA solution (50 μL) was used in place of 20 mM aqueous calcium chloride, was used as a blank value. […] Inhibition rate (%){1−(measured value−blank test value)/(control value−blank test value)}×100

m-calpain (derived from porcine kidney), sequence (I3LQD3 entry or part of it): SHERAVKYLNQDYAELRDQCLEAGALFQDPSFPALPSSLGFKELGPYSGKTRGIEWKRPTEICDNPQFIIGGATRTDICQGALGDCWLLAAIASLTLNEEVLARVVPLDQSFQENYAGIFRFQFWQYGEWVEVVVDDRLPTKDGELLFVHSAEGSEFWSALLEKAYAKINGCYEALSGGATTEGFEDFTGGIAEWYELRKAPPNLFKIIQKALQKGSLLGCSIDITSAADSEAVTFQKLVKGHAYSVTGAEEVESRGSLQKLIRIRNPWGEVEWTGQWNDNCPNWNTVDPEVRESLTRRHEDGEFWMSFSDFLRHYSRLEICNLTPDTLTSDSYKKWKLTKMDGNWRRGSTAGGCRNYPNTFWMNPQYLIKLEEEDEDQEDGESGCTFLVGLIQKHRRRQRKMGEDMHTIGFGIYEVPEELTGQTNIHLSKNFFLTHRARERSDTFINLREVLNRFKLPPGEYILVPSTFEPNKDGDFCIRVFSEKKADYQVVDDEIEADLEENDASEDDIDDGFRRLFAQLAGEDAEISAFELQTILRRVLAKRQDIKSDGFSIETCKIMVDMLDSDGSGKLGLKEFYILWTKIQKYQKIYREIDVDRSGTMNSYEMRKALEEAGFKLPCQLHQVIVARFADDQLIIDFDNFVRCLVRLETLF
m-calpain (derived from porcine kidney), sequence (P04574 whole entry, further chain): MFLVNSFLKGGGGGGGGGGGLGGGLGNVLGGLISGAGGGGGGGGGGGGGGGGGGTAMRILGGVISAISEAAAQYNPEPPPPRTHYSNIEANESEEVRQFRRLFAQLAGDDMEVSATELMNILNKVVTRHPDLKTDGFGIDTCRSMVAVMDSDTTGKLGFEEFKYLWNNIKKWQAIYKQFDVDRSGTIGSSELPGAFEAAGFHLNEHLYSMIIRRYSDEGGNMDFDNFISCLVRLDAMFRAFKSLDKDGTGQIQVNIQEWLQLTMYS

Turning to `COCCOCCOC(=O)N[C@@H](CC(C)C)C(=O)N[C@@H](Cc1ccccc1)C(=O)C(=O)NC1CC1` [compound 17, ((1S)-1-((((1S)-1-Benzyl-2,3-dioxo-3-(cyclopropylamino)propyl)amino)carbonyl)-3-methylbutyl)carbamic acid 5-methoxy-3-oxapentyl ester], in test [1] (M2, M3 and M4 groups, FIG. 12), the “% Swing” value is reported as “there was no significant difference compared with C group”. Moreover, the “Swing-to-Stance Ratio” value in test [1] (M2 group (administration from E9.5)) is recorded as “recovered to a level at which there was no significant difference with C group”; in test [1] (M3 and M4 groups (administration from birth / postnatal Day 10)), “closer to 1 than M1 group”. Further, in test [2], the IC50 came to 0.1 µM.
